According to US20220146526A1, “METHOD FOR EVALUATING SAMPLE, ANALYSIS METHOD, METHOD FOR DETECTING DEGRADED SAMPLE, MARKER FOR DETECTING DEGRADED BLOOD PLASMA SAMPLE, AND MARKER FOR DETECTING DEGRADED SERUM SAMPLE” (SHIMADZU CORPORATION, priority 2019, published 2022):
Where “and” joins values, the source holds several entries; their conditions need not be identical. Equal values may be shown once.

Columns and labels:
Assay type in all cases: physicochemical, human
[1] = GC/MS of blood plasma sample: time from blood collection to centrifugation (Table A); conditions: for Rate of increase or decrease: detection intensity relative to 1 at 15 minutes; for Rate of increase or decrease / Increase or decrease: blood collection to centrifugation; for Increase or decrease: detection intensity
Procedure: (§1) At room temperature, 5 mL of blood from a healthy subject was taken into a blood-collecting vessel containing EDTA, and the blood-collecting vessel was inverted for mixing, then cooled, and allowed to stand at 4° C. Here, in order to investigate how the detection intensity of molecules contained in the sample was affected in a case where the time to cooling was set to 5 minutes or more as compared to that in a case where the time to cooling was set to 1 minute or less, preparations were performed under both the former condition and the latter condition. After standing, the blood sample was subjected to centrifugation under a condition of 4° C., 3000 rpm, and 15 minutes. […] After centrifugation, the blood-collecting vessel was left to stand at room temperature for 30 minutes, and the blood plasma was isolated during this 30 minutes. The obtained blood plasma sample was frozen and stored. Here, in order to investigate how the detection intensity of molecules contained in the sample was affected in cases where freezing and thawing was performed 4 times, 6 times, and 10 times after freezing as compared to that in a case where freezing and thawing was performed 2 times after freezing, freezing and thawing was performed under the respective conditions of 2, 4, 6, and 10 times.
(§2) Frozen blood plasma samples and serum samples were subjected to GC/MS or LC/MS. In GC/MS, the blood plasma samples and serum samples were subjected to methoxymation and trimethylsilylation and then introduced to GC-MS.
(§3) GC/MS was conducted using GCMS·TQ8040 (Shimadzu Corporation) that was a GC·MS equipped with AOC·20i (Shimadzu Corporation) as an autosampler.
(§4) Column: BPX5 (inner diameter of 0.25 mm, length of 30 m, and film thickness of 0.25 μm) (SGE)
(§5) Column temperature: maintained at 60° C. for 2 minutes, then raised at 15° C./min, and maintained at 330° C. for 3 minutes.
(§6) Inlet temperature: 250° C.
(§7) Carrier gas control mode: constant linear velocity of 39.0 cm/sec
(§8) Sample introduction method: split (split ratio of 30:1) Injection volume: 1 μL
(§9) Ionization method: electron ionization
(§10) Ionization current: 60 μA
(§11) Interface temperature: 280° C.
(§12) Ion source temperature: 200° C.
(§13) Mode: multiple reaction monitoring (MRM)
The rate of increase or decrease in Table A is the value of detection intensity relative to 1 that is the detection intensity in a case where the time from blood collection to centrifugation is set to 15 minutes.

[2] = GC/MS of serum sample: number of times of freezing and thawing (Table I); parameters: key to Rate of increase or decrease / Rate of increase or decrease (first value, increase): detection intensity relative to 2 freeze-thaw cycles = 1; conditions: for Rate of increase or decrease: detection intensity relative to 1 at 2 times; for Number of times when compound is affected: detection intensity changed by 30% or more vs 2 times of freezing and thawing
Procedure: (§14) After standing, the blood sample was subjected to centrifugation under a condition of room temperature, 3500 rpm, and 5 minutes. […] After centrifugation, the blood-collecting vessel was left to stand at room temperature, and the serum was isolated during this time. Here, in order to investigate how the detection intensity of molecules contained in the sample was affected in cases where the time during which the blood-collecting vessel was left at room temperature was set to 1 hour and 6 hours as compared to that in a case where the time was set to 30 minutes, preparations were performed under the respective conditions of 30 minutes, 1 hour, and 6 hours. The obtained serum sample was frozen and stored. Here, in order to investigate how the detection intensity of molecules contained in the sample was affected in cases where freezing and thawing was performed 4 times, 6 times, and 10 times after freezing as compared to that in a case where freezing and thawing was performed 2 times after freezing, freezing and thawing was performed under the respective conditions of 2, 4, 6, and 10 times.
as §2, §3, §4, §5, §6, §7, §8, §9, §10, §11, §12, §13
The rate of increase or decrease in Table I is the value of detection intensity relative to 1 that is the detection intensity in a case where the number of times of freezing and thawing is set to 2 times.

[3] = GC/MS of serum sample: time from blood collection to centrifugation (Table G); conditions: blood collection to centrifugation; for Rate of increase or decrease: detection intensity relative to 1 at 15 minutes; for Increase or decrease: detection intensity
Procedure: as §14, §2, §3, §4, §5, §6, §7, §8, §9, §10, §11, §12, §13
The rate of increase or decrease in Table G is the value of detection intensity relative to 1 that is the detection intensity in a case where the time from blood collection to centrifugation is set to 15 minutes.

[4] = GC/MS of serum sample: time from centrifugation to isolation (Table H); parameters: key to Rate of increase or decrease / Rate of increase or decrease (first value, increase): detection intensity relative to 1 at 30 min centrifugation-to-isolation; conditions: for Rate of increase or decrease: detection intensity relative to 1 at 30 minutes; for Increase or decrease: detection intensity
Procedure: as §14, §2, §3, §4, §5, §6, §7, §8, §9, §10, §11, §12, §13
The rate of increase or decrease in Table H is the value of detection intensity relative to 1 that is the detection intensity in a case where the time from centrifugation to isolation is set to 30 minutes.

[5] = GC/MS of blood plasma sample: number of times of freezing and thawing (Table C); conditions: for Rate of increase or decrease: detection intensity relative to 1 at 2 times, freezing and thawing 4 times; for Increase or decrease: detection intensity, freezing and thawing 4 times vs 2 times
Procedure: as §1, §2, §3, §4, §5, §6, §7, §8, §9, §10, §11, §12, §13
The rate of increase or decrease in Table C is the value of detection intensity relative to 1 that is the detection intensity in a case where the number of times of freezing and thawing is set to 2 times.

[6] = LC/MS of blood plasma sample: time from blood collection to centrifugation (Table D)
Procedure: as §1, §2
(§15) Analysis column: Discovery HS F5-3 (inner diameter of 2.1 mm, length of 150 mm, film thickness of 3 μm) (Sigma-Aldrich)
(§16) Column temperature: 40° C.
(§17) (A) 0.1% formic acid (dissolved in water)
(§18) (B) 0.1% formic acid (dissolved in acetonitrile)
(§19) Flow velocity: 0.25 mL/min
(§20) Ionization method: electrospray
(§21) Temperature: • Desolvation Line (DL) temperature: 250° C. • Heat block temperature: 400° C. • Interface temperature: 300° C.
(§22) Gas flow rate: • Nebulizer gas flow rate: 3.0 L/min • Drying gas flow rate: 10.0 L/min • Heating gas flow rate: 10.0 L/min
as §13
The rate of increase or decrease in Table D is the value of detection intensity relative to 1 that is the detection intensity in a case where the time from blood collection to centrifugation is set to 15 minutes.

[7] = LC/MS of serum sample: number of times of freezing and thawing (Table M); parameters: key to Rate of increase or decrease: detection intensity relative to 1 at 2 freeze-thaw cycles; conditions: for Rate of increase or decrease: 6 times of freezing and thawing, relative to 1 at 2 times, different from individual to individual
Procedure: as §14, §2, §15, §16, §17, §18, §19, §20, §21, §22, §13
The rate of increase or decrease in Table M is the value of detection intensity relative to 1 that is the detection intensity in a case where the number of times of freezing and thawing is set to 2 times.

[8] = 10 times of freezing and thawing
[9] = serum sample, GC/MS, detection intensity vs 2 times of freezing and thawing
[10] = serum, GC/MS, freezing and thawing 10 times
[11] = detection intensity, serum, GC/MS, freezing and thawing 10 times vs 2 times

For `CCCCCCCCCCCCCCCCCC(=O)O` [Stearic acid], the “Rate of increase or decrease” value ([1]; after 12 hours) was 2.13, the Increase or decrease ([1]; after 12 hours vs 15 minutes) was “Increase” and the “Rate of increase or decrease” value [2, 8] was 1.33. The “Number of times when compound is affected” value (“Number of times” below) ([2]; serum sample, GC/MS) was 10 times and the Increase or decrease [2, 9] was “Increase”.
In the case of `O=C(O)C=C(CC(=O)O)C(=O)O` [Aconitic acid], the “Rate of increase or decrease” value ([1]; after 4 hours) is reported as 0.41, the Increase or decrease ([1]; after 4 hours vs 15 minutes) is reported as “Decrease” and the “Rate of increase or decrease” value ([3]; after 4 hours) is reported as 1.52. The Increase or decrease ([3]; after 4 hours vs 15 minutes) was “Increase”, the “Rate of increase or decrease” value ([4]; after 1 hour) was 0.04 and the Increase or decrease ([4]; after 1 hour vs 30 minutes) was “Decrease”.
For `CCCCCC(=O)O` [Cabroic acid], the “Rate of increase or decrease” value [5] was 1.58, the Increase or decrease [5] was “Increase” and the “Number of times” value ([2]; serum sample, GC/MS) was 10 times. The Increase or decrease [2, 9] was “Increase”.
With `CC(C)CCC[C@@H](C)[C@H]1CC[C@H]2[C@@H]3CC=C4C[C@@H](O)CC[C@]4(C)[C@H]3CC[C@]12C` [Cholesterol] the “Rate of increase or decrease” value ([1]; after 12 hours) was 1.38 and the Increase or decrease ([1]; after 12 hours vs 15 minutes) was “Increase”.
With `CCCCCCCC/C=C\CCCCCCCC(=O)O` [Oleic acid] the “Rate of increase or decrease” value ([1]; after 12 hours) was 4.05 and the Increase or decrease ([1]; after 12 hours vs 15 minutes) was “Increase”.
For `CCCCC/C=C\C/C=C\C/C=C\C/C=C\CCCC(=O)O` [Arachidonic acid], the “Rate of increase or decrease” value ([1]; after 4 hours) was 1.56, the Increase or decrease ([1]; after 4 hours vs 15 minutes) was “Increase” and the “Rate of increase or decrease” value [2, 10] was 1.52. For the same compound, the Increase or decrease [2, 11] was “Increase”.
With `O=C[C@H](O)[C@@H](O)[C@@H](O)[C@H](O)C(=O)O` [Galacturonic acid] the “Rate of increase or decrease” value [5] was 1.44, the Increase or decrease [5] was “Increase” and the “Rate of increase or decrease” value ([3]; after 8 hours) was 0.60 and 0.64. The Increase or decrease ([3]; after 8 hours vs 15 minutes) was “Decrease”, the “Rate of increase or decrease” value ([4]; after 1 hour) was 1.87 and the Increase or decrease ([4]; after 1 hour vs 30 minutes) was “Increase”.
With `CCC(N)C(=O)O` (stereo not drawn) [2-Aminobutyric acid] the Increase or decrease ([6]; detection intensity, blood collection to centrifugation, after 12 hours vs 15 minutes) was “Different from individual”, the “Rate of increase or decrease (second value, decrease)” value ([6]; different from individual to individual, individuals with decrease, relative to 1 at 15 minutes, collection to centrifugation, after 12 hours) was 0.65 and the “Rate of increase or decrease (first value, increase)” value ([6]; different from individual to individual, individuals with increase, relative to 1 at 15 minutes, collection to centrifugation, after 12 hours) was 1.53. For the same compound, the “Rate of increase or decrease” value ([4]; after 6 hours) was 1.60, the Increase or decrease ([4]; after 6 hours vs 30 minutes) was “Increase” and the “Rate of increase or decrease” value [2, 10] was 2.63. For the same compound, the Increase or decrease [2, 11] was “Increase”, the “Rate of increase or decrease” value ([7]; first value (increase)) was 1.31 and the “Rate of increase or decrease” value ([7]; second value (decrease)) was 0.61. The “Number of times” value ([7]; serum sample, LC/MS, detection intensity changed by 30% or more vs 2 times of freezing and thawing) was 6 times and the Increase or decrease ([7]; serum sample, LC/MS, detection intensity vs 2 times of freezing and thawing) was “Different from individual”.
In the case of `O=C(CO)[C@H](O)[C@@H](O)[C@H](O)CO` [Sorbose], the Increase or decrease ([1]; after 4 hours vs 15 minutes) is reported as “Different from individual”, the “Rate of increase or decrease (second value, decrease)” value ([1]; different from individual to individual, individuals with decrease, relative to 1 at 15 minutes, collection to centrifugation, after 4 hours) is reported as 0.67 and the “Rate of increase or decrease (first value, increase)” value ([1]; different from individual to individual, individuals with increase, relative to 1 at 15 minutes, collection to centrifugation, after 4 hours) is reported as 2.10. The “Rate of increase or decrease” value ([3]; after 4 hours) was 1.53, the Increase or decrease ([3]; after 4 hours vs 15 minutes) was “Increase” and the “Rate of increase or decrease” value [2, 8] was 0.68. The “Number of times” value ([2]; serum sample, GC/MS) was 10 times and the Increase or decrease [2, 9] was “Decrease”.
